The values that follow come from patent US20220218679A1, “NOVEL COMPOUNDS AND PHARMACEUTICAL COMPOSITIONS THEREOF FOR THE TREATMENT OF INFLAMMATORY DISORDERS” (Galapagos NV, priority 2019, published 2022).

In brackets after ≈: the same amount, converted by molar mass. Like-named read-outs stand apart in the source and are kept apart here.

The nature of the series: Thermodynamic solubility. The note with it: for solubility thermodynamic at 24 h: 37 °C, thermodynamic from solid. It is filed as physicochemical. From the text: 4.2. Thermodynamic Solubility
Poor solubility, in particular poor thermodynamic solubility can limit the absorption of compounds from the gastrointestinal tract which in turn may reduce oral bioavailability.
Thermodynamic solubility investigates the solubility of a compound as a saturated solution in equilibrium, by opposition to kinetic solubility, which measures the solubility of a metastable solution where supersaturation may occur and provide over estimation of the actual solubility of the compound. (Klein, 2010)
4.2.2. Thermodynamic Solubility—Protocol 2
In a 8 mL glass vial, 1-2 mg of dry matter of compound were added and stirred with the suitable buffers (Fed State Simulated Intestine Fluid, FeSSIF, or Fasted State Simulated Intestine Fluid, FaSSIF, or Fasted State Simulated Gastric Fluid, FaSSGF, or phosphate buffer pH 7.4) for 24 h at r.t. (for the buffer pH 7.4) or 37° C. (for the GI fluids). The concentration of the mixture was 1 mg/mL.
A volume of 1000 μL were sampled, centrifuged for 10 min at 10 000 rpm and 500 μL of the supernatant were filtered on captiva plate. The samples were diluted in duplicates in DMSO (F100 and F10). Then, a final dilution (F100) in 80/20 H2O/MeCN containing the internal standard (warfarin) was used for LCMS-MS analysis.
A standard curve was made starting from a 40,000 ng/mL stock in DMSO, freshly prepared from dry matter. Then, successive concentrations at 15,000, 11,000, 6,000, 2,500, 1,000, 375, 150 and 75 ng/mL in DMSO were prepared.
Three quality control samples were made: one of 10,000, 1,500 and 200 ng/mL in DMSO, also starting from the DMSO working stock solution at 40,000 ng/mL.
The standard curve and quality controls were diluted a F100 in 80/20 H2O/MeCN (with internal standard) and analyzed on LC/MS-MS (API4000 or API5500).
The samples were analyzed on LC-MS with a flow rate of 0.6 mL/min. The mobile phase A was 0.1% formic acid in water and the mobile phase B was 0.1% formic acid in 90% MeCN and 10% of H2O. The sample was run under positive or negative ion spray on Pursuit C18—5 μm (2.0×20 mm) column, from Agilent.
The ratio analyte/internal standard peaks areas of the standard curve were plotted in a graph and a linear or polynomial of the second order equation was used to calculate the unknown concentrations of the test compound.
Solubility values were reported in μg/mL.

Setting [1] is: Fasted State Simulated Gastric Fluid, 24 h, 37° C.
Where [2] appears, read: Fasted State Simulated Intestine Fluid (FaSSIF), fassif, Fasted State Simulated Intestine Fluid, read-out: Tsol FaSSIF.
Setting [3] is: Fed State Simulated Intestine Fluid (FeSSIF), fessif, Fed State Simulated Intestine Fluid, read-out: Tsol FeSSIF.
Setting [4] is: Fasted State Simulated Gastric Fluid (FaSSGF), fassgf or other biorelevant, Fasted State Simulated Gastric Fluid, read-out: Tsol FaSSGF.

Regarding `COc1cn2nc(CC(F)C(C)(C)O)cc2cc1NC(=O)c1cccn(C2CC2)c1=O` (single isomer, unassigned; enantiomer a) [Compound 25, 1-cyclopropyl-N-[2-(2-fluoro-3-hydroxy-3-methyl-butyl)-6-methoxy-pyrazolo[1,5-a]pyridin-5-yl]-2-oxo-pyridine-3-carboxamide Enantiomer A], the “Tsol FaSSGF” value under setting [1] is 389 µg/mL. For the same molecule, the solubility thermodynamic at 24 h under setting [2] was 20.2 µg/mL (≈ 47.1 µM) and the solubility thermodynamic at 24 h under setting [3] is 59.6 µg/mL (≈ 139 µM).

Consider `COc1cn2nc(CC(F)C(C)(C)O)cc2cc1NC(=O)c1cccn(C2CC2)c1=O` (single isomer, unassigned; enantiomer b) [Compound 26, 1-cyclopropyl-N-[2-(2-fluoro-3-hydroxy-3-methyl-butyl)-6-methoxy-pyrazolo[1,5-a]pyridin-5-yl]-2-oxo-pyridine-3-carboxamide Enantiomer B], for which, under setting [1], the “Tsol FaSSGF” value is 818 µg/mL. Besides, the “Tsol FaSSIF” value (Fasted State Simulated Intestine Fluid, 24 h, 37° C.) is 34.5 µg/mL. The “Tsol FeSSIF” value (Fed State Simulated Intestine Fluid, 24 h, 37° C.) is 52.7 µg/mL.

In the case of `COc1cn2nc(CCC(C)(C)O)cc2cc1NC(=O)c1cccn(C)c1=O` [Compound 2, N-[2-(3-hydroxy-3-methylbutyl)-6-methoxypyrazolo[1,5-a]pyridin-5-yl]-1-methyl-2-oxopyridine-3-carboxamide], the solubility thermodynamic at 24 h under setting [2] was 10.2 µg/mL (≈ 26.5 µM).

Consider `COc1cn2nc(CCC(C)(C)O)cc2cc1NC(=O)c1cccc(C(F)(F)F)n1` [Compound 3, N-[2-(3-hydroxy-3-methylbutyl)-6-methoxypyrazolo[1,5-a]pyridin-5-yl]-6-(trifluoromethyl)pyridine-2-carboxamide], for which the solubility thermodynamic at 24 h reads like this: under setting [4], 106 µg/mL (≈ 251 µM); under setting [2], 0.801 µg/mL (≈ 1.9 µM); under setting [3], 27.6 µg/mL (≈ 65.3 µM).

For the molecule `CC(C)(O)CCc1cc2cc(NC(=O)c3cccc(C(F)(F)F)n3)c(C(N)=O)cn2n1` [Compound 4, 2-(3-hydroxy-3-methylbutyl)-5-[[6-(trifluoromethyl)pyridine-2-carbonyl]amino]pyrazolo[1,5-a]pyridine-6-carboxamide], the solubility thermodynamic at 24 h is less than 0.75 µg/mL under setting [4], 0.75 µg/mL (≈ 1.72 µM) under setting [2] and 6.01 µg/mL (≈ 13.8 µM) under setting [3].

Consider `CNC(=O)c1cn2nc(CCC(C)(C)O)cc2cc1NC(=O)c1cccc(C(F)(F)F)n1` [Compound 5, 2-(3-hydroxy-3-methylbutyl)-N-methyl-5-[[6-(trifluoromethyl)pyridine-2-carbonyl]amino]pyrazolo[1,5-a]pyridine-6-carboxamide], for which the solubility thermodynamic at 24 h is 1.96 µg/mL (≈ 4.36 µM) under setting [4], 2.26 µg/mL (≈ 5.03 µM) under setting [2] and 14.2 µg/mL (≈ 31.6 µM) under setting [3].

`COc1cn2nc(CCC(C)(C)O)cc2cc1NC(=O)c1cccn(C(F)F)c1=O` [Compound 7, 1-(difluoromethyl)-N-[2-(3-hydroxy-3-methyl-butyl)-6-methoxy-pyrazolo[1,5-a]pyridin-5-yl]-2-oxo-pyridine-3-carboxamide]: the solubility thermodynamic at 24 h under setting [4] was greater than 1000 µg/mL, the solubility thermodynamic at 24 h under setting [2] was 28 µg/mL (≈ 66.6 µM) and the solubility thermodynamic at 24 h under setting [3] was 93.9 µg/mL (≈ 223 µM).

Regarding `CNC(=O)c1cn2nc(C3CCCS(=O)(=O)C3)cc2cc1NC(=O)c1cccc(C(F)(F)F)n1` (stereo not shown) [Compound 8, 2-(1,1-dioxothian-3-yl)-N-methyl-5-[[6-(trifluoromethyl)pyridine-2-carbonyl]amino]pyrazolo[1,5-a]pyridine-6-carboxamide], the solubility thermodynamic at 24 h was less than 0.75 µg/mL under setting [4], less than 0.75 µg/mL under setting [2] and less than 0.75 µg/mL under setting [3].

For `CCOc1cn2nc(CCC(C)(C)O)cc2cc1NC(=O)c1cccn(C(F)F)c1=O` [Compound 9, 1-(difluoromethyl)-N-[6-ethoxy-2-(3-hydroxy-3-methyl-butyl)pyrazolo[1,5-a]pyridin-5-yl]-2-oxo-pyridine-3-carboxamide], the solubility thermodynamic at 24 h under setting [4] is 3.82 µg/mL (≈ 8.79 µM) and the solubility thermodynamic at 24 h under setting [2] is 3.96 µg/mL (≈ 9.12 µM).

In the case of `CNC(=O)c1cn2nc(C3CCN(C)CC3)cc2cc1NC(=O)c1cccc(C(F)(F)F)n1` [Compound 12, N-methyl-2-(1-methyl-4-piperidyl)-5-[[6-(trifluoromethyl)pyridine-2-carbonyl]amino]pyrazolo[1,5-a]pyridine-6-carboxamide], the solubility thermodynamic at 24 h was greater than 1000 µg/mL under setting [4] and 183 µg/mL (≈ 397 µM) under setting [2].

On to `COc1c(NC(=O)c2cccn(C3CC3)c2=O)cc2cc(CCC(C)(C)O)nn2c1C` [Compound 13, 1-cyclopropyl-N-[2-(3-hydroxy-3-methyl-butyl)-6-methoxy-7-methyl-pyrazolo[1,5-a]pyridin-5-yl]-2-oxo-pyridine-3-carboxamide], for which the solubility thermodynamic at 24 h reads like this: under setting [4], 8.45 µg/mL (≈ 19.9 µM); under setting [2], 1.77 µg/mL (≈ 4.17 µM).

For `CNC(=O)c1cn2nc(C3CCOCC3)cc2cc1NC(=O)c1cccc(C(F)F)n1` [Compound 15, 5-[[6-(difluoromethyl)pyridine-2-carbonyl]amino]-N-methyl-2-tetrahydropyran-4-yl-pyrazolo[1,5-a]pyridine-6-carboxamide], the solubility thermodynamic at 24 h is less than 0.75 µg/mL under setting [4] and less than 0.75 µg/mL under setting [2].

As to `NC(=O)c1cn2nc(C3CCOCC3)cc2cc1NC(=O)c1cccc(C(F)F)n1` [Compound 16, 5-[[6-(difluoromethyl)pyridine-2-carbonyl]amino]-2-tetrahydropyran-4-yl-pyrazolo[1,5-a]pyridine-6-carboxamide], the solubility thermodynamic at 24 h under setting [2] is 1.29 µg/mL (≈ 3.11 µM).

For the molecule `CCOc1cn2nc(CCC(C)(C)O)cc2cc1NC(=O)c1cccn(C2CC2)c1=O` [Compound 17, 1-cyclopropyl-N-[6-ethoxy-2-(3-hydroxy-3-methyl-butyl)pyrazolo[1,5-a]pyridin-5-yl]-2-oxo-pyridine-3-carboxamide], the solubility thermodynamic at 24 h is 75.7 µg/mL (≈ 178 µM) under setting [4], 24.6 µg/mL (≈ 58 µM) under setting [2] and 81 µg/mL (≈ 191 µM) under setting [3].

As to `CCOc1cn2nc(CCC(C)(C)O)cc2cc1NC(=O)c1cccn(C)c1=O` [Compound 18, N-[6-ethoxy-2-(3-hydroxy-3-methyl-butyl)pyrazolo[1,5-a]pyridin-5-yl]-1-methyl-2-oxo-pyridine-3-carboxamide], the solubility thermodynamic at 24 h under setting [4] is 68.9 µg/mL (≈ 173 µM), the solubility thermodynamic at 24 h under setting [2] was 20.6 µg/mL (≈ 51.7 µM) and the solubility thermodynamic at 24 h under setting [3] is 84.1 µg/mL (≈ 211 µM).

For the molecule `CNC(=O)c1cn2nc(CCC(C)(C)O)cc2cc1NC(=O)c1cccc(C(F)F)n1` [Compound 19, 5-[[6-(difluoromethyl)pyridine-2-carbonyl]amino]-2-(3-hydroxy-3-methyl-butyl)-N-methyl-pyrazolo[1,5-a]pyridine-6-carboxamide], the solubility thermodynamic at 24 h was 8.26 µg/mL (≈ 19.1 µM) under setting [4], 12.5 µg/mL (≈ 29 µM) under setting [2] and 70.6 µg/mL (≈ 164 µM) under setting [3].

As to `CC(C)(O)CCc1cc2cc(NC(=O)c3cccc(C(F)F)n3)c(C(N)=O)cn2n1` [Compound 20, 5-[[6-(difluoromethyl)pyridine-2-carbonyl]amino]-2-(3-hydroxy-3-methyl-butyl)pyrazolo[1,5-a]pyridine-6-carboxamide], the solubility thermodynamic at 24 h by setting is: under setting [4], 1.62 µg/mL (≈ 3.88 µM); under setting [2], 3.09 µg/mL (≈ 7.4 µM).

With `COc1cn2nc(CCC(C)(C)O)cc2cc1NC(=O)c1cccn(C2CCC2)c1=O` [Compound 21, 1-cyclobutyl-N-[2-(3-hydroxy-3-methyl-butyl)-6-methoxy-pyrazolo[1,5-a]pyridin-5-yl]-2-oxo-pyridine-3-carboxamide], the solubility thermodynamic at 24 h under setting [2] is 16.4 µg/mL (≈ 38.6 µM).

Take `COc1cn2nc(CC(F)C(C)(C)O)cc2cc1NC(=O)c1cccn(C2CC2)c1=O` (stereo not shown) [Compound 22, 1-cyclopropyl-N-[2-(2-fluoro-3-hydroxy-3-methyl-butyl)-6-methoxy-pyrazolo[1,5-a]pyridin-5-yl]-2-oxo-pyridine-3-carboxamide]: the solubility thermodynamic at 24 h was 50.6 µg/mL (≈ 118 µM) under setting [4], 14 µg/mL (≈ 32.7 µM) under setting [2] and 75.9 µg/mL (≈ 177 µM) under setting [3].

On to `[2H]C([2H])([2H])C(O)(CCc1cc2cc(NC(=O)c3cccn(C4CC4)c3=O)c(OC)cn2n1)C([2H])([2H])[2H]` [Compound 23, 1-cyclopropyl-N-[6-methoxy-2-[4,4,4-trideuterio-3-hydroxy-3-(trideuteriomethyl)butyl]pyrazolo[1,5-a]pyridin-5-yl]-2-oxo-pyridine-3-carboxamide], for which the solubility thermodynamic at 24 h is 104 µg/mL (≈ 250 µM) under setting [4], 16 µg/mL (≈ 38.4 µM) under setting [2] and 93 µg/mL (≈ 223 µM) under setting [3].
